Data from patent US20090124631A1, “Combination Therapy” (priority 2007, published 2009).

Assays:
Type in all cases: biochemical
HDAC5 = target: T1, HDAC5 (Homo sapiens, UniProt Q9UQL6); assay: Fluorescence-based HDAC enzyme assay, recombinant HDAC5; settings: recombinant human HDAC enzyme in vitro; read-out: IC50 (μM) HD5
T1 construct: cDNAs encoding truncated versions of HDAC4, 5 and 7 encompassing their deacetylase domains; hexahistidine (N); made in house; host or cells: Sf-9 insect cells (baculovirus)
T1 sequence (Q9UQL6 684-1028 limits assumed): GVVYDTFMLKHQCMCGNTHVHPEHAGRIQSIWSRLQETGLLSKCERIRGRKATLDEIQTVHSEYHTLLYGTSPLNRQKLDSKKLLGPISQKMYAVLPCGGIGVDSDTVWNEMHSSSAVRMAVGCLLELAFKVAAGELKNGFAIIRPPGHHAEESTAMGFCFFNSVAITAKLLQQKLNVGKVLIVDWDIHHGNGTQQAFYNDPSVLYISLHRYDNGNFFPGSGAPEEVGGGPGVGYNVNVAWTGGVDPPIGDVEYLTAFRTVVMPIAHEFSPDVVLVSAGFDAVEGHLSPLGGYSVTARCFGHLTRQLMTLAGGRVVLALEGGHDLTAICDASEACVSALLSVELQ
Description: (§1) cDNAs of human HDAC1-8 and 11 were generated by RT-PCR reactions using primers complementary to the 5′ and 3′ coding sequence of human HDAC gene sequences in GenBank. cDNAs corresponding to the full length human HDAC1, 2, 3 and 11 were cloned into pBlueBac4.5 vector (Invitrogen). The constructs were used to generate recombinant baculoviruses using the Bac-N-Blue™ DNA according to the manufacturer's instructions (Invitrogen). The recombinant HDAC1, 2, 3, 11 proteins produced harbor a FLAG tag at their C-termini. cDNAs encoding truncated versions of HDAC4, 5 and 7 encompassing their deacetylase domains were cloned into pDEST10 as an N-terminal hexahistidine fusion protein and recombinant baculoviruses were generated using the Bac-to-Bac™ Baculovirus expression system (Invitrogen). HDAC6 and 8 were cloned as full length N-terminally His-tagged protein. All HDAC proteins were expressed in insect Sf-9 cells (Spodoptera frugiperdai) upon infection with recombinant baculovirus. HDAC1 enzyme was purified from the Q-sepharose FF column (Amersham Pharmacia Biotech, Baie d'Urfe QC, Canada) followed by an anti-FLAG immunoaffinity column (Sigma). HDAC2, 3 and 11 were purified using Flag-antibody immunoaffinity purification. HDAC4, 5, 6, 7 and 8 were purified using either Ni-NTA resin (QIAGEN Mississauga ON, Canada) or His-Select resin (Sigma) with step washes and elution with different concentrations of imidazole in Buffer containing 25 mM Tris (or NaPO4) pH 8.0, 10% glycerol and 150 mM or 500 mM NaCl.
(§2) Recombinant HDAC enzymes were incubated with diluted compounds in assay buffer (25 mM Hepes, pH 8.0, 137 mM NaCl, 1 mM MgCl2 and 2.7 mM KCl) for 10 minutes at ambient temperatures in black 96-well plate. Boc-Lys(Ac)-AMC (for HDAC1, 2, 3, 6, and 8 enzymes), which was purchased from Bachem Biosciences Inc., (King of Prussia, Philadelphia) were added into enzyme-compound mixture and incubated at 37° C. For HDAC4, 5, 7 assays, Boc-Lys(TFA)-AMC, which was synthesized in house, was used as substrate and 0.1% BSA was added to the buffer. […] Reaction time was predetermined to ensure that reaction was linear for the incubation time. Reaction was stopped by adding a freshly prepared trypsin (1 mg/ml final concentration) with 1 μM TSA (Biomol) in assay buffer. After 30 minutes, fluorescence was measured using a fluorometer (SPECTRAMAX GeminiXS, Molecular Devices, Sunnylvale, Calif.). The 50% inhibitory concentrations (IC50) for inhibitors were determined by analyzing dose-response inhibition curves.

HDAC7 = target: T2, HDAC7 (Homo sapiens, UniProt Q8WUI4); assay: Fluorescence-based HDAC enzyme assay, recombinant HDAC7; settings: recombinant human HDAC enzyme in vitro; read-out: IC50 (μM) HD7
T2 construct: cDNAs encoding truncated versions of HDAC4, 5 and 7 encompassing their deacetylase domains; hexahistidine (N); made in house; host or cells: Sf-9 insect cells (baculovirus)
T2 sequence (Q8WUI4 512-865 limits assumed): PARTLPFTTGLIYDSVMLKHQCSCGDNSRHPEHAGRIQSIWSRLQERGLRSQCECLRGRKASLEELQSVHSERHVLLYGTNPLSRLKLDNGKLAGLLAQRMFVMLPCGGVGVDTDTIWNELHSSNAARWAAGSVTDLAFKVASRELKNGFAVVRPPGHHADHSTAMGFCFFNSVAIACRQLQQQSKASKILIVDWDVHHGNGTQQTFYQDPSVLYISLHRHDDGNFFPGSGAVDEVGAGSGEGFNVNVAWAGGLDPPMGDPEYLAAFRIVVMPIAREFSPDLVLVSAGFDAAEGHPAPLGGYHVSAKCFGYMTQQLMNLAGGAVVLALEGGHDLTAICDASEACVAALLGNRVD
Description: as §1, §2

HDAC1 = target: T3, HDAC1 (Homo sapiens, UniProt Q13547); assay: Fluorescence-based HDAC enzyme assay, recombinant HDAC1; settings: recombinant human HDAC enzyme in vitro; read-out: IC50 (μM) HD1
T3 construct: cDNAs corresponding to the full length human HDAC1, 2, 3 and 11 were cloned into pBlueBac4.5 vector; FLAG (C); made in house; host or cells: Sf-9 insect cells (baculovirus)
T3 sequence (Q13547 whole entry): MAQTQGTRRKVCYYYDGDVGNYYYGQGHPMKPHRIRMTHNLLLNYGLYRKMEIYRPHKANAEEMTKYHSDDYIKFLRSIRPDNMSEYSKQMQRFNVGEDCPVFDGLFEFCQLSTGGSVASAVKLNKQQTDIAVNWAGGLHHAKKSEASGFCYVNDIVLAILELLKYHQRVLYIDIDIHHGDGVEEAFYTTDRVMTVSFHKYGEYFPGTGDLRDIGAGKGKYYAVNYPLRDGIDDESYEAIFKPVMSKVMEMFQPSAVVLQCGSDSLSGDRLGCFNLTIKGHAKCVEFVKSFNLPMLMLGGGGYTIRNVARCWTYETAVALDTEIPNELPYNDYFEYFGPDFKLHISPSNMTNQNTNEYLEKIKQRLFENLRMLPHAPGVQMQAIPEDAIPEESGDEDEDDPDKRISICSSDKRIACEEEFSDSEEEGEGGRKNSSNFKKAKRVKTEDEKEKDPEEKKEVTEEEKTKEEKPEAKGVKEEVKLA
Description: as §1, with “HDAC2, 3 and 11 were purified using Flag-antibody immunoaffinity purification.” left out
as §2, with “Boc-Lys(Ac)-AMC” for “Recombinant HDAC enzymes were incubated with diluted compounds in assay buffer (25 mM Hepes, pH 8.0, 137 mM NaCl, 1 mM MgCl2 and 2.7 mM KCl) for 10 minutes at ambient temperatures in black 96-well plate. Boc-Lys(Ac)-AMC”, “Calif.).” for “Calif.). The 50% inhibitory concentrations (IC50) for inhibitors were determined by analyzing dose-response inhibition curves.”

HDAC2 = target: T4, HDAC2 (Homo sapiens, UniProt Q92769); assay: Fluorescence-based HDAC enzyme assay, recombinant HDAC2; settings: recombinant human HDAC enzyme in vitro; read-out: IC50 (μM) HD2
T4 construct: cDNAs corresponding to the full length human HDAC1, 2, 3 and 11 were cloned into pBlueBac4.5 vector; FLAG (C); made in house; host or cells: Sf-9 insect cells (baculovirus)
T4 sequence (Q92769 whole entry): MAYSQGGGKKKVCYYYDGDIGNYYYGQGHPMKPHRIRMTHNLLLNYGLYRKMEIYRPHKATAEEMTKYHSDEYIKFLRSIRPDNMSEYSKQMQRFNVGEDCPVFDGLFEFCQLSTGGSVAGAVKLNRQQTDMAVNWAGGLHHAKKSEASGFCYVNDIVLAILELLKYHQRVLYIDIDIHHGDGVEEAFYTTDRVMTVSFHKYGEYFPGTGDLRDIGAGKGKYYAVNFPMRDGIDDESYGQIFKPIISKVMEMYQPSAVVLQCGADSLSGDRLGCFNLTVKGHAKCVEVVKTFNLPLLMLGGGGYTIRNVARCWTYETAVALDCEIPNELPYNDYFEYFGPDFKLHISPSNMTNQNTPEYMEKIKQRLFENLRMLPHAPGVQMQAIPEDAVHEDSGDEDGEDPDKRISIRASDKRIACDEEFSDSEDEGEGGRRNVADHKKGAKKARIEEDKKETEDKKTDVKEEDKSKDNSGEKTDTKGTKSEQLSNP
Description: as §1, with “HDAC2, 3 and 11 were purified using Flag-antibody immunoaffinity purification.” left out
as §2, with “Boc-Lys(Ac)-AMC” for “Recombinant HDAC enzymes were incubated with diluted compounds in assay buffer (25 mM Hepes, pH 8.0, 137 mM NaCl, 1 mM MgCl2 and 2.7 mM KCl) for 10 minutes at ambient temperatures in black 96-well plate. Boc-Lys(Ac)-AMC”, “Calif.).” for “Calif.). The 50% inhibitory concentrations (IC50) for inhibitors were determined by analyzing dose-response inhibition curves.”

[1] = test system: recombinant human HDAC enzymes; assay: HDAC isotype selectivity across recombinant HDAC enzymes; settings: from Table 1
Description: as §1, with “HDAC2, 3 and 11 were purified using Flag-antibody immunoaffinity purification.” left out
as §2, with “Boc-Lys(Ac)-AMC” for “Recombinant HDAC enzymes were incubated with diluted compounds in assay buffer (25 mM Hepes, pH 8.0, 137 mM NaCl, 1 mM MgCl2 and 2.7 mM KCl) for 10 minutes at ambient temperatures in black 96-well plate. Boc-Lys(Ac)-AMC”, “Calif.).” for “Calif.). The 50% inhibitory concentrations (IC50) for inhibitors were determined by analyzing dose-response inhibition curves.”

Structure (SMILES) | IC50 (HDAC5) [µM] | IC50 (HDAC7) [µM] | IC50 (HDAC1) [µM] | IC50 (HDAC2) [µM] | HDAC isotype selectivity [1]
Nc1ccccc1NC(=O)c1ccc(CNc2nccc(-c3cccnc3)n2)cc1 [Compound A] | > 10 | > 10 | – | – | –
Nc1ccccc1NC(=O)c1ccc(N2CC[C@H](Nc3cccnc3)C2)cc1 [Compound B] | > 10 | > 10 | 0.2 | 0.5 | selective inhibitors of HDAC1, 2 and 3
Nc1ccc(-c2ccccc2)cc1NC(=O)c1ccc(N2CC[C@H](N)C2)cc1 [Compound D] | > 10 | > 10 | 0.04 | 0.09 | selective for HDAC1 and HDAC 2
Nc1ccc(-c2ccccc2)cc1NC(=O)c1ccc(N2CCC(N)CC2)cc1 [Compound E] | > 10 | > 10 | 0.02 | 0.08 | selective for HDAC1 and HDAC 2
CN1CCN(c2ccc(C(=O)Nc3cc(-c4ccccn4)ccc3N)cc2)CC1 [Compound F] | > 10 | > 10 | 0.1 | 0.1 | selective for HDAC1 and HDAC 2
CN1CCN(c2ccc(C(=O)Nc3cc(-c4ccncc4)ccc3N)cc2)CC1 [Compound G] | > 10 | > 10 | 0.06 | 0.1 | selective for HDAC1 and HDAC 2
CC(C)N1CCN(c2ccc(C(=O)Nc3cc(-c4ccncc4)ccc3N)cc2)CC1 [Compound H] | > 10 | > 10 | 0.06 | 0.09 | selective for HDAC1 and HDAC 2
